Here are results for three compounds from patent publication US10202408B2, “Prodrugs and methods of use thereof” (Health Innovation Ventures B.V., priority 2012, dated 2019).

Values after ≈ are worked out from the molar mass of the structure shown. “Also recorded” adds a separate entry of the source.

A short description of data set [1]: Solubility determined by HPLC. Format: physicochemical. The note with it: plasma or biological fluid; α-Minimal Essential Media (α-MEM) containing 5% Fetal Calf Serum (FCS). The method, then:
Table Footnote: ^aDetermined in α-Minimal Essential Media (α-MEM) containing 5% Fetal Calf Serum (FCS). ^bDetermined in Phosphate Buffered Saline (PBS) containing 2 equivalents of sodium bicarbonate. ^cDetermined in Lactate Buffer at pH=4.
Solubility and stability of compounds in media (+5% Fetal calf serum), phosphate buffered saline (+sodium bicarbonate) or lactate buffer (at pH=4) were determined by HPLC.

In data set [2] the test system is HCT116 cells engineered to over-express human aldo-ketoreductase 1C3 (AKR1C3). The data set is described as follows: Low cell density IC50 (SRB) assay, HCT116 wild type versus AKR1C3 over-expressing cells. Format: cell-based. The note with it: 4 h exposure.
Data set [3] concerns HCT116 MCLs over-expressing AKR1C3. Briefly: Multicellular layer (MCL) clonogenic assay, HCT116 wild type versus AKR1C3 over-expressing MCLs. Format: cell-based, human.
Data set [4] deals with wild type SiHa tumour xenografts. Briefly: Excision assay with and without radiation, wild type SiHa tumour xenografts. Format: in vivo, NIH-III nude mice. The conditions noted are these: for cell killing in combination with radiation versus radiation alone: HCT116 POR and wild type SiHa xenografts, 10 or 15Gy, single (or BID) intraperitoneal dose; for hypoxic cell kill in vivo (log cell kill): with or without 10Gy radiation, 22 at 422, 300 and 11 at 1330, 23 at 1000 umol/kg. The method, then:
(§1) Tumours were grown subcutaneously in the flank of NIH-III mice by inoculating cells grown in tissue culture. Tumours were monitored using electronic calipers. When tumours reached treatment size, mice were randomized to treatment groups (five to seven per group). Compounds were given as single (or BID) intraperitoneal doses alone or 5 min after whole body irradiation (^60Co source). Eighteen hours after treatment, tumours were excised, weighed, minced, dissociated enzymatically, and plated to determine clonogenicity. Clonogens/gram of tissue were calculated relative to controls and effects of treatment were tested for significance (ANOVA with Dunnett's).

Data set [5] concerns HCT116 MCLs with 3% E coli NfsA-expressing cells. Briefly: MCL clonogenic bystander assay, HCT116 MCLs seeded with 3% E coli NfsA-expressing cells. Format: cell-based, human. The note with it: 97% wild type HCT116, 3% E coli NfsA-expressing cells.
Data set [6] relates to HCT116, H460, H1299 and SiHa wild type cancer cell lines. The data set is described as follows: Oxic versus anoxic low cell density IC50 assay, wild type cancer cell lines. Format: cell-based, human. The note with it: 4 h anoxia during prodrug exposure versus oxic. The method, then:
(§2) Compounds were subjected to testing, including low-cell density cytotoxicity assay. Cells (500 cells/well) were seeded in 96-well plates and exposed to prodrug for 4 h, washed, then left to grow for a further 5 days. The SRB assay was employed to determine IC50 values (concentration of prodrug required to inhibit proliferation by 50%). Parental HCT116 cells (HCT116 is a cell line derived from human colon cancer) and cells expressing the example nitroreductase gene nfsA from Escherichia coli were evaluated head-to-head. Parental H1299 cells (H1299 is a cell line derived from lung cancer) and cells expressing the example nitroreductase gene nfsA from Escherichia coli were evaluated head-to-head. Parental HCT116 cells and cells expressing human AKR1C3 were evaluated head-to-head. Parental H1299 cells and cells expressing human AKR1C3 were evaluated head-to-head. In a variation of these assays test compounds were assessed for their ability to give hypoxia-selective cell killing. Here wild type HCT116, H460 (H460 is a cell line derived from lung cancer), H1299 and SiHa cells (SiHa is a cell line derived from cervical cancer) were used in addition to HCT116 cells engineered to over express cytochrome P450 reductase (HCT116 POR), a human one-electron nitroreductase. Low-cell density cytotoxicity assays were performed as above under oxic conditions and compared to experiments where cells were shown 4 h of anoxia during the prodrug exposure period, before being washed free of prodrug and then left to grow for a further 5 days under oxic conditions, as above.

Data set [7] relates to bacterial nitroreductases from the NfsA and NfsB families. Briefly: GFP SOS assay with nitroreductase over-expression library. Format: cell-based, E. coli strain SOS-R4. The conditions noted are these: 55 candidate nitroreductase library, 6 h challenge.
For data set [8], the system named is H1299 cells engineered to over-express human aldo-ketoreductase 1C3 (AKR1C3). Briefly: Low cell density IC50 (SRB) assay, H1299 wild type versus AKR1C3 over-expressing cells. Format: cell-based. The note with it: 4 h exposure. The method, then: as §2
In data set [9] the test system is H1299 cells engineered to over-express E coli NfsA. The data set is described as follows: Low cell density IC50 (SRB) assay, H1299 wild type versus E coli NfsA over-expressing cells. Format: cell-based, human.
The subject of data set [10] is bacterial nitroreductases from the NfsA and NfsB families. The data set is described as follows: GFP SOS assay with nitroreductase over-expression library. Format: cell-based, E. coli strain SOS-R4. The conditions noted are these: single and poly mutated variants of NfsA_Ec, single-mutated variant of NfsA_Bs.
Data set [11] has as its system HCT116 cells engineered to over-express E coli NfsA. The data set is described as follows: Low cell density IC50 (SRB) assay, HCT116 wild type versus E coli NfsA over-expressing cells. Format: cell-based, human.
Data set [12] concerns HCT116 POR cell line (over-expressing Cytochrome P450 reductase). The data set is described as follows: Oxic versus anoxic low cell density IC50 assay, HCT116 POR cells. The note with it: HCT116 POR cell line compared with wild type. Format: cell-based, human. The method, then:
as §2, with “Low-cell density cytotoxicity assays were performed as above under oxic conditions and compared to experiments where cells were shown 4 h of anoxia during the prodrug exposure period, before being washed free of prodrug and then left to grow for a further 5 days under oxic conditions, as above.” left out

Data set [13] concerns 15% E coli NfsA-expressing H1299 xenografts. The data set is described as follows: Tumour growth delay, 15% E coli NfsA-expressing H1299 xenografts. Format: in vivo, NIH-III mice.
In data set [14] the test system is 15% E coli NfsA-expressing HCT116 xenografts. The data set is described as follows: Tumour growth delay, 15% E coli NfsA-expressing HCT116 xenografts. Format: in vivo, NIH-III mice. The note with it: single dose; 10, 22 and 60 at 1000, 422 and 1330 umol/kg. The method, then:
Animals weighed 18-25 g at the time of tumour inoculation. Tumours were grown subcutaneously on the right flank of mice by inoculating cells grown in tissue culture (1×10^7 cells in 100 uL serum free α-MEM). Tumour sizes were monitored three times weekly using electronic callipers and treatments were initiated once tumour diameter reached ≥7 mm.
Tumour bearing mice were randomised into the appropriate treatment groups and tumour size and body weight recorded. Test compounds were formulated on the day of the experiment and kept in foil-wrapped tubes out of direct fluorescent light. If recruitment of animals occurred over multiple days, the drug stocks were aliquoted into tubes and frozen once at […] until required. Mice were treated with a single (or BID) dose of prodrug by intraperitoneal injection and thereafter tumour size and body weight was monitored every second day. Tumour volume was calculated as π (l×w×w)/6, where l is the major axis and w is the perpendicular minor axis. Animals were culled when they had reached the appropriate survival endpoint or when body weight loss exceeded 20% of the pre-treatment value.

Data set [15] concerns HCT116 tumour xenografts over-expressing Cytochrome P450 reductase. Briefly: Excision assay with and without radiation, HCT116 POR tumour xenografts. Format: in vivo, mice. The note with it: 1330 μmol/kg, with or without 15Gy radiation. The method, then: as §1

`CS(=O)(=O)c1cc([N+](=O)[O-])c(C(N)=O)cc1N(CCBr)CCBr` [compound 4] displayed a solubility in data set [1] of 68 µM (≈ 32.2 µg/mL).

`CN1CCN(C(=O)c2cc(N(CCBr)CCBr)c(S(C)(=O)=O)cc2[N+](=O)[O-])CC1` [compound 22, (5-(bis(2-bromoethyl)amino)-4-(methylsulfonyl)-2-nitrophenyl)(4-methylpiperazin-1-yl)methanone]: the “AKR1C3-mediated cytotoxicity (IC50 wild type versus AKR1C3)” value in data set [2] and in data set [8] was “less susceptible to AKR1C3-mediated cytotoxicity than PR-104A” each time. In addition, the “AKR1C3-dependent clonogenic cell kill in MCLs” value in [3] is listed as “do not cause AKR1C3-dependant cytotoxicity”. The “cell killing in combination with radiation versus radiation alone” value in data set [4] is on record as “increased cell killing above what could be achieved with radiation alone”. Further, in data set [4], the “hypoxic cell kill in vivo (log cell kill)” value is “significant hypoxic cell kill in vivo”. Further, the “bystander cell killing in MCLs” value in data set [5] is on record as “display evidence of metabolism by the 3% E coli NfsA-expressing cells with bystander cell killing of the 97% non-expressing neighbour cells”. Further, the hypoxia-dependent cytotoxicity entry in data set [6] is “increased cytotoxicity in cells under hypoxia”. Also, the “metabolism by bacterial nitroreductases (SOS response)” value in data set [7] was “substrates for multiple wild type and mutant bacterial nitroreductases from the NfsA and NfsB families”. Further, the “E coli NfsA-mediated cytotoxicity (IC50 wild type versus NfsA)” value in data set [9] and in data set [11] was “produce E coli NfsA-mediated cytotoxicity” each time. In addition, the “activity with mutated nitroreductase variants” value in data set [10] is on record as “demonstrated”. The “Hypoxic Cytotoxicity Ratios (HCR)” value in data set [12] is “Larger HCRs; also recorded: The degree of this effect was increased”. The “E coli NfsA mediated anti-tumour efficacy (mean tumour volume)” value is given as “display significant E coli NfsA mediated anti-tumour efficacy” in data set [13] (500 umol/kg twice daily (BID), total 1000 umol/kg); “display significant E coli NfsA mediated anti-tumour efficacy” in [13] (single dose, 10, 22, 60 and 11 at 750, 422, 1330 and 1330 umol/kg); “display significant E coli NfsA mediated anti-tumour efficacy” in [14]. Further, the tumour growth delay result in data set [13] (mixed HCT116 and H1299 xenografts, 15% E coli NfsA cells, single (or BID) intraperitoneal dose) was “profound tumour growth delay”.

For `CS(=O)(=O)c1cc([N+](=O)[O-])c(C(=O)NCCOP(=O)(O)O)cc1N(CCBr)CCBr` [compound 300, 2-(5-(bis(2-bromoethyl)amino)-4-(methylsulfonyl)-2-nitrobenzamido)ethyl dihydrogen phosphate], in data set [4], the “cell killing in combination with radiation versus radiation alone” value is reported as “increased cell killing above what could be achieved with radiation alone” and the “hypoxic cell kill in vivo (log cell kill)” value is given as “significant hypoxic cell kill in vivo”. The “hypoxic cell kill in vivo (log cell kill)” value in data set [15] is given as “significant hypoxic cell kill in vivo”.
